Target: T1, human GPR119 (Homo sapiens, UniProt Q8TDV5)
T1 sequence (Q8TDV5 1-335): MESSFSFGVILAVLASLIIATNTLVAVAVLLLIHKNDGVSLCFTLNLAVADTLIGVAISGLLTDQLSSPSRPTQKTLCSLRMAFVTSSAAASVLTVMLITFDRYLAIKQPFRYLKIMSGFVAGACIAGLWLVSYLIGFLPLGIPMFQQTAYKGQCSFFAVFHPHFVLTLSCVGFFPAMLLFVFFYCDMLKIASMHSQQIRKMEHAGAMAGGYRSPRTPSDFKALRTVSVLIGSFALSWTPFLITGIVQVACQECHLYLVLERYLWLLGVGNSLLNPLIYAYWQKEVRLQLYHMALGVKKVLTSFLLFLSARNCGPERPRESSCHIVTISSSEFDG
Assay: GPR 119 radioligand binding assay ([3H]-Compound A or [3H]-Compound B, membranes of HEK 293FT cells over-expressing hGPR119)
Conditions: calculated from IC50 by Cheng-Prusoff; each line is a separate determination
Protocol: HEK 293FT cells (Invitrogen, Carlsbad, Calif.) were grown in a shake flask in 293Freestyle medium (Invitrogen) supplemented with 50 microg/mL neomycin and 10 mM HEPES (37 C, 8% carbon dioxide, shaking). The cells were centrifuged gently (approximately 500×g, 10 minutes) and the pellet resuspended in a mixture of Dulbecco's PBS(minus Mg++/−Ca++) supplemented with 18% fetal bovine serum (Sigma Aldrich) and P1 virus such that the multiplicity of infection (MOI) was 10 and the final cell density was 1.3×10^6/mL (total volume 2.5 liters). The cells were transferred to a 5 liter Wave Bioreactor Wavebag (Wave Technologies, MA) and incubated for 4 hours at 27 degrees Celsius (17 rocks/min, 7 degrees platform angle); at the end of the incubation period, an equal volume(2.5 liters) of 293Freestyle medium supplemented with 30 mM sodium butyrate (Sigma Aldrich) was added (final concentration=15 mM), and the cells were grown for 20 hours (37 degrees Celsius, 8% CO2 [0.2 liters/min}, 25 rocks/minute, 7 degrees platform angle). […]
The frozen cells were thawed on ice and centrifuged at 700×g (1400 rpm) for 10 minutes at 4 degrees Celsius. […] The protein concentration was determined using the Pierce BCA protein assay kit (Pierce reagents A #23223 and B #23224). […]

Row | SMILES | Ki
1 | Cc1c(O[C@@H]2[C@@H]3COC[C@H]2CN(C(=O)OC(C)C)C3)ncnc1N1CCc2cc(S(C)(=O)=O)ccc21 [Example 23, Isopropyl (9-syn)-9-({5-methyl-6-[5-(methylsulfonyl)-2,3-dihydro-1H-indol-1-yl]pyrimidin-4-yl}oxy)-3-oxa-7-azabicyclo[3.3.1]nonane-7-carboxylate] | 0.13 µM
2 | Cc1c(O[C@@H]2[C@@H]3COC[C@H]2CN(C(=O)OC2(C)CC2)C3)ncnc1N1CCc2ncccc21 [Example 28, 1-Methylcyclopropyl (9-syn)-9-{[6-(2,3-dihydro-1H-pyrrolo[3,2-b]pyridin-1-yl)-5-methylpyrimidin-4-yl]oxy}-3-oxa-7-azabicyclo[3.3.1]nonane-7-carboxylate] | 0.0458 µM

Source: patent US20120052130A1, “GPR 119 MODULATORS” (Pfizer Inc., priority 2009, published 2012)
